The values that follow come from patent US20240309360A1, “TRANS-ACTIVATORS AND METHODS AND USE THEREOF” (THE GOVERNING COUNCIL OF THE UNIVERSITY OF TORONTO, priority 2021, published 2024).

The assay deals with EGFP reporter (7×TetO array, basal CMV promoter) in HEK293T reporter cell line. Nature of the assay: TAD-seq pooled activation screen of 60-aa fragments fused to PYL1. It is filed as cell-based, human. To be noted: for Hit high GFP: high GFP population (top 1%); for logFC high GFP / logFC medium GFP: log 2 fold change of counts, 100 μM ABA 48 hours; for logFC high GFP: sorted high GFP cells (top 1%) vs unsorted cells; for logFC medium GFP: sorted medium GFP cells (top 2-5%) vs unsorted cells; for Hit medium GFP: medium GFP population (top 2-5%). An excerpt:
A fragment library of 75 activators identified in our screen was generated, using 60 amino-acid tiles every 20 aa such that every amino acid was represented by three different fragments (FIG. 3A). The pooled fragment library was fused to PYL1 and recruited to the same GFP reporter used in the original ORFeome screen (FIG. 3A). […] The GFP positive population was sorted into two independent replicates, and fragments in each population were quantified by sequencing. However, in contrast to the ORFeome screen, both high GFP cells (top 1%) and medium GFP cells (top 2-5%) were sorted to potentially identify transactivators of different strength.
Activation domain tiling library generation. A tiling library was generated from 75 proteins identified as activators in the ORFeome screen. Oligonucleotides containing a 5′ adapter […] (SEQ ID NO: 23) and a 3′ adapter […] (SEQ ID NO: 24) to generate a 5′ adapter ([…]) (SEQ ID NO: 11) and a 3′ adapter ([…]) (SEQ ID NO: 12) were synthesized as pooled libraries (Twist Biosciences). 6×50 μl PCR reactions were set up using NEBNext Ultra II Q5 master mix (New England Biolabs) with 5 nM oligos as template. PCR conditions were optimized to find the lowest cycle with a clean visible product at the expected 300 bp length. The thermocycling condition was an initial 30 s at 98° C., then 2 cycles of 98° C. for 10 s, 63° C. for 20 s, and 72° C. for 15 s, followed by 10 more cycles of 98° C. for 10 s and 72° C. for 30 s with a final extension at 72° C. for 5 min. Primers were designed to have Gateway compatible flanking sequences. The resulting libraries were gel extracted by QIAgen gel extraction kit after loading on a 2% TAE gel for 2 hrs at 60V and subsequently cloned into pDONR221 using 20 separate BP reactions in total of 5 μl reactions. The entry plasmid pool was transformed after an overnight reaction into DHSalpha competent E. coli and incubated overnight on LB agar plates containing kanamycin ([…]). Colonies were collected and plasmid DNA purified. 20 LR reactions were then set up as described in the previous section. Each reaction was transformed into NEB 10-beta chemically competent E. coli and grown on LB agar plates containing carbenicillin ([…]) overnight at 30° C. Colonies were counted to ensure >200-fold coverage at each step of cloning, pooled and maxiprepped.
Pooled activation screens. ORFeome and transactivation tiling libraries tagged at the C-terminus with PYL1 were packaged into lentiviral particles. A clonal EGFP reporter cell line stably co-expressing ABI-dCas9 and a gRNA targeting the promoter were transduced at low multiplicity of infection (MOI) with approximately 30% cell survival after puromycin (1 μg/mL) selection. Untransduced cells under the same condition were fully eliminated. Sufficient cells were transduced to maintain >500 fold coverage of the libraries. Recruitment was induced by treating cells with 100 μM abscisic acid (ABA, Sigma) for 48 hours. In parallel, a control batch of cells were treated with equal total volume of DMSO. Cells were then washed in PBS, treated with dissociation buffer (1 mM EDTA, 10 mM KCl, 150 mM NaCl, 5 mM sodium bicarbonate, 0.1% glucose) and resuspended in flow buffer (5 mM EDTA, 25 mM HEPES pH 7, 1% BSA, PBS). High GFP population for each library, top 1% for ORFeome and two bins of top 1% and the next 4% for the TAD screen, were sorted and their genomic DNA directly extracted using QIAmp DNA Blood Mini Kit (QIAGEN).
TAD sequencing. Performed nested PCR on the purified genomic DNA using primers targeting T7 promoter and PYL1 of the backbone vector in the first step creating a ˜470 bp product. Products of the first reaction were then pooled and amplified for an additional 10 steps using primers targeting outside the Gateway sites creating a ˜300 bp product. Libraries were quantified on Qubit dsDNA Broad Range kit and paired-end sequenced on an Illumina MIseq with a custom PAGE-purified R1 sequencing primer. […]

For “FAM90A1-19: 60-aa TAD-seq fragment of FAM90A1 (RQPPHSRPCLPTAQACTMSHHPAASHDGAQPLRVLFRRLENGRWSSSLLTAPSFHSPEKP; listed as Homo sapiens)”, the “Hit high GFP” value is reported as “hit”, the “logFC high GFP” value was 2.051, the “logFC medium GFP” value amounted to 1.557 and the “Hit medium GFP” value is given as “hit”.

“ZXDC-13: 60-aa TAD-seq fragment of ZXDC (YLESGGSARTDYRAIQLAKEKKQRGAGSNAGASQSTQRKIKEGKMSPPHFHASQNSWLCG; listed as Homo sapiens)”: the “Hit high GFP” value is recorded as “hit”, the “logFC high GFP” value is on record as 2.377, the “logFC medium GFP” value turned out to be 1.734 and the “Hit medium GFP” value is reported as “hit”.

Regarding “C11orf74-1: 60-aa TAD-seq fragment of C11orf74 (MSAHMSGLEIMDEDQLIKDVLDKFLNCHEQTYDEEFLNTFTHLSQDLLLLPGEVEQDVST; listed as Homo sapiens) [Fragment C11orf74-1]”, the “Hit high GFP” value was “hit”, the “logFC high GFP” value is recorded as 2.356, the “logFC medium GFP” value is listed as 1.551 and the “Hit medium GFP” value is reported as “hit”.

For the substance “HSF1-20: 60-aa TAD-seq fragment of HSF1 (KNELSDHLDAMDSNLDNLQTMLSSHGFSVDTSALLDLFSPSVTVPDMSLPDLDSSLASIQ; listed as Homo sapiens)”, the “logFC high GFP” value is 0.6234, the “logFC medium GFP” value is given as 0.7077 and the “Hit medium GFP” value is “hit”.

As for “CSRNP1-28: 60-aa TAD-seq fragment of CSRNP1 (DNIEAPHFPLPGLSPPGDASSCFLESLMGFSEPAAEALDPFIDSQFEDTVPASLMEPVPV; listed as Homo sapiens)”, the “logFC high GFP” value was determined as 0.5029, the “logFC medium GFP” value is recorded as 0.6955 and the “Hit medium GFP” value is recorded as “hit”.

Regarding “LIN9-25: 60-aa TAD-seq fragment of LIN9 (SRLTAILLQIKCLAEGGDLNSFEFKSLTDSLNDIKSTIDASNISCFQNNVEIHVAHIQSG; listed as Homo sapiens)”, the “Hit high GFP” value is “hit”, the “logFC high GFP” value is reported as 2.094 and the “logFC medium GFP” value stood at 1.08.

As to “C3orf62-11: 60-aa TAD-seq fragment of C3orf62 (NHMCGHCQDSPFKEEAWALLMDKSPQKATDADPGSLKQAFDDHNIVETVLDLEEDYNVMT; listed as Homo sapiens) [Fragment C3orf62-11]”, the “Hit high GFP” value is “hit”, the “logFC high GFP” value came to 6.023 and the “logFC medium GFP” value is given as −0.5261.

As for “ATMIN-32: 60-aa TAD-seq fragment of ATMIN (ETQTMSSGFETLGSLFFTSNETQTAMDDFLLADLAWNTMESQFSSVETQTSAEPHTVSNF; listed as Homo sapiens)”, the “logFC high GFP” value came to 0.6355, the “logFC medium GFP” value is on record as 0.8198 and the “Hit medium GFP” value is “hit”.

On to “NPAS4-37: 60-aa TAD-seq fragment of NPAS4 (DPSEEWGSGDPEAEGPGGAPSPCNNLSPEDHSFLEDLATYETAFETGVSAFPYDGFTDEL; listed as Homo sapiens)”, for which the “Hit high GFP” value was “hit”, the “logFC high GFP” value was determined as 1.645 and the “logFC medium GFP” value is 0.7019.

Turning to “KLF7-2: 60-aa TAD-seq fragment of KLF7 (YFSALPSLEETWQQTCLELERYLQTEPRRISETFGEDLDCFLHASPPPCIEESFRRLDPL; listed as Homo sapiens)”, the “logFC high GFP” value was 1.431, the “logFC medium GFP” value amounted to 1.165 and the “Hit medium GFP” value is “hit”.

For “NPAS4-31: 60-aa TAD-seq fragment of NPAS4 (DVPLVPEGLLTPEASPVKQSFFHYSEKEQNEIDRLIQQISQLAQGMDRPFSAEAGTGGLE; listed as Homo sapiens)”, the “logFC high GFP” value was found to be 1.22, the “logFC medium GFP” value turned out to be 0.8563 and the “Hit medium GFP” value is reported as “hit”.
